# US20130203598A1, “USE OF PHOTOSYNTHETIC PIGMENT STABILIZING AGENTS TO REGULATE RIPENING AND QUALITY IN FRUITS AND VEGETABLES” (WASHINGTON STATE UNIVERSITY, priority 2011, published 2013)
# What was measured:
# [1] = test system: d'Anjou pears; test: Fruit firmness (pressure) of d'Anjou pears treated on trees before harvest, after commercial controlled atmosphere storage; type: in vivo, d'Anjou pear (Pyrus communis)
# Method: FIG. 1. Fruit pressure of Bluestim™ (glycine betaine)-treated and untreated d'Anjou pears. D'Anjou pears were treated on trees with Bluestim™ concentrations of 0, 2.5, 5, and 10 lbs/acre on Aug. 17, 2010. Pears were harvested on 9/20/2010 and stored in commercial controlled atmosphere (CA) facilities. Pears were removed from storage on Jan. 7, 2011.
# FIG. 3. Fruit pressure of Bluestim™ (glycine betaine)-treated and untreated d'Anjou pears. D'Anjou pears were treated on trees with Bluestim™ concentrations of 0 and 7.5 lbs/acre before harvest. Pears were harvested during the fall and stored in commercial controlled atmosphere (CA) facilities. Pears were removed from storage approximately 3 months later. Fruit firmness and % Brix were measured approximately 1 month after removal from storage.
# In addition, the degree of firmness and/or lack thereof may be used as an indicator of ripeness. Fruit firmness is generally measured as kg/cm^−2 and suitable ranges of firmness values for unripened and ripe fruit and vegetables are well-known to those of skill in the art. Firmness may be measured using a variety of instruments such as various fruit firmness testers, force gauges, etc.
# [2] = test system: d'Anjou pears; test: Soluble sugars (% Brix) of d'Anjou pears treated on trees before harvest, after commercial controlled atmosphere storage; type: in vivo, d'Anjou pear (Pyrus communis); conditions: application before harvest, after CA storage (FIGS. 2 and 3)
# Method: FIG. 2. Percent Brix of Bluestim™-treated pears after CA storage. Percent Brix were measured for all pear treatments after they were removed from the commercial CA storage conditions. FIG. 3. Fruit pressure of Bluestim™ (glycine betaine)-treated and untreated d'Anjou pears. D'Anjou pears were treated on trees with Bluestim™ concentrations of 0 and 7.5 lbs/acre before harvest. Pears were harvested during the fall and stored in commercial controlled atmosphere (CA) facilities. Pears were removed from storage approximately 3 months later. Fruit firmness and % Brix were measured approximately 1 month after removal from storage. In one embodiment, the methods of the invention are carried out before a fruit is “ripe”, i.e. before the fruit has a soluble solids content or “SSC” (which generally corresponds to sugar content) that is generally recognized in the art as suitable for a fruit of interest. […] Percent sugar content is typically measured, for example, in degrees Brix (symbol °Bx) which is the sugar content of an aqueous solution. […] Those of skill in the art will recognize that typical Brix values for fruit and vegetables to which glycine betaine is applied as described herein will vary widely depending on the type of fruit or vegetable, and will be able to readily able to determine suitable values. […]
# [3] = use on comestible substances, consumption by humans or other animals; cited from earlier work
compound,measurement,setting,value
"C[N+](C)(C)CC(=O)O [glycine betaine, N,N,N-trimethylglycine]",fruit firmness compared to untreated pears,"[1]; application before harvest, 2.5, 5, 10 or 7.5 lbs/acre, same post-harvest storage conditions (FIGS. 1 and 3)",firmer pears compared to untreated pears
same,"fruit firmness, dose dependence","[1]; application before harvest, 10 lbs/acre is the highest dose","increased the fruit firmness in a dose dependent manner, with applications of 10 lbs/acre yielding the firmest pears"
same,reversibility of the effect on firmness and % BRIX as time passes,[1]; treated pears as time passes after treatment,"soften and exhibit increases in % BRIX, indicating that the effect is temporary"
same,soluble sugars measured in % BRIX,[2],decrease in soluble sugars measured in % BRIX in a dose dependent manner
same,toxicity,[3],non-toxic
